Assay results taken from article PMC12752563, “Caffeic Acid Acts as a Potent Senomorphic and Alleviates Inflammation and Lung Fibrosis by Covalently Targeting Annexin A5 Protein in Mice” (Exploration, 2025).
pKd: −log10 of the molar value.

How the values were obtained:
Annexin A5 (ANXA5) [1] = target: T1, Annexin A5 (ANXA5) (Homo sapiens, UniProt P08758); test: in-gel fluorescence after click chemistry; type: binding; conditions: covalent; 12% SDS-PAGE
T1 construct: recombinant protein purified from E. coli; His-tag labelled for MST
T1 sequence (P08758 2-320): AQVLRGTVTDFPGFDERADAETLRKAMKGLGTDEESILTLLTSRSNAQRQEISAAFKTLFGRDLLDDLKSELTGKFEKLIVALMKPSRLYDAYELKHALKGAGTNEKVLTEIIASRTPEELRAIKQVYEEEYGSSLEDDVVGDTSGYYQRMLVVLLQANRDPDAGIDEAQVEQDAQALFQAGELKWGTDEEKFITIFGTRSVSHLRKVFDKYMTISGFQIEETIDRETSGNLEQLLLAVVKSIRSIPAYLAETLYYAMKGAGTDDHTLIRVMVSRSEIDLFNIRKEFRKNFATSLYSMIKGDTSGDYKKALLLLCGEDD

Annexin A5 (ANXA5) [2] = target: T1, Annexin A5 (ANXA5); test: microscale thermophoresis; type: binding

Row | Compound | in-gel fluorescence after click chemistry (Annexin A5 (ANXA5) [1]) | pKd (Annexin A5 (ANXA5) [2])
1 | C#CCNC(=O)/C=C/c1ccc(O)c(O)c1 [CA probe] | wild‐type ANXA5 could be labeled by CA‐probe | 
2 | O=C(O)/C=C/c1ccc(O)c(O)c1 [CA, caffeic acid] |  | 5.43
